Results: ChEMBL document CHEMBL1129146, “Pentamidine congeners. 4. DNA binding affinity and anti-Pneumocystis carinii activity of butamidine analogues” (1996)

Assays:
[1] = test system: Pneumocystis carinii; assay: Compound was tested for anti-P. carinii activity in vitro.; assay type: functional
[2] = test system: Nucleic Acid; assay: Delta Tm (thermal denaturation) in sonicated calf thymus DNA; assay type: nucleic-acid assay; parameters: unit not given here; settings: Bos taurus
[3] = Delta Tm (thermal denaturation) in sonicated poly(dA).poly(dT) homopolymer

SMILES	ΔTm [2]	ΔTm [3]	Activity [1] [µM]
COc1cc(Cc2cnc(N)nc2N)cc(OC)c1OC.Cc1cc(NS(=O)(=O)c2ccc(N)cc2)no1 [CO-TRIMOXAZOLE]	–	–	17
C(=C\COc1ccc(C2=NCCN2)cc1)/COc1ccc(C2=NCCN2)cc1	7.9	20.8	42
N=C(N)c1ccc(OC/C=C\COc2ccc(C(=N)N)cc2)cc1	11	31.5	9
N=C(N)c1ccc(OC/C=C/COc2ccc(C(=N)N)cc2)cc1	7.7	23.3	19
N=C(N)c1ccc(OC[C@@H](O)[C@@H](O)COc2ccc(C(=N)N)cc2)cc1	–	–	78

Now from value to molecule, other results behind:

ΔTm [2]	ΔTm [3]	SMILES	Activity [1] [µM]
10	22.9	N=C(N)c1ccc(OCCCCCOc2ccc(C(=N)N)cc2)cc1 [PENTAMIDINE]	27
9.3	28.9	C(=C/COc1ccc(C2=NCCN2)cc1)/COc1ccc(C2=NCCN2)cc1	25
8.3	20.4	N=C(N)c1ccc(OCCCCOc2ccc(C(=N)N)cc2)cc1	39
